Test results published in the supplement of paper PMC10307832.

Columns and labels:
Test in all cases: relative viability (nuclei count vs DMSO), 5 days (fraction); higher = more cells survive
Afatinib + Dasatinib = compound: CN(C)C/C=C/C(=O)Nc1cc2c(Nc3ccc(F)c(Cl)c3)ncnc2cc1O[C@H]1CCOC1 [Afatinib] + Cc1nc(Nc2ncc(C(=O)Nc3c(C)cccc3Cl)s2)cc(N2CCN(CCO)CC2)n1 [Dasatinib] (partner 0.075 µM)
Summary of the method: (§1)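 Relative viability divides the nuclei count in treated wells by that in vehicle wells. Lung cancer cell lines were seeded in 1536-well plates, dosed by pin tool the next day, and fixed and stained after 5 days in one step with final 0.05% Triton X-100, 1% formaldehyde and 1 ug/ml Hoechst. Dosing was a single drug or a fixed anchor-drug dose plus five library-drug doses (not always all listed) in √10 steps, and values are medians of duplicate plates imaged at 4×.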

Afatinib + Pemetrexed = compound: CN(C)C/C=C/C(=O)Nc1cc2c(Nc3ccc(F)c(Cl)c3)ncnc2cc1O[C@H]1CCOC1 [Afatinib] + Nc1nc2[nH]cc(CCc3ccc(C(=O)N[C@@H](CCC(=O)O)C(=O)O)cc3)c2c(=O)[nH]1 [Pemetrexed] (partner 0.2 µM)
Summary of the method: as §1

Afatinib + Palbociclib = compound: CN(C)C/C=C/C(=O)Nc1cc2c(Nc3ccc(F)c(Cl)c3)ncnc2cc1O[C@H]1CCOC1 [Afatinib] + CC(=O)c1c(C)c2cnc(Nc3ccc(N4CCNCC4)cn3)nc2n(C2CCCC2)c1=O [Palbociclib] (partner 0.5 µM)
Summary of the method: as §1

Afatinib + Vorinostat = compound: CN(C)C/C=C/C(=O)Nc1cc2c(Nc3ccc(F)c(Cl)c3)ncnc2cc1O[C@H]1CCOC1 [Afatinib] + O=C(CCCCCCC(=O)Nc1ccccc1)NO [Vorinostat] (partner 1 µM)
Summary of the method: as §1

Cell Line | relative viability (Afatinib + Dasatinib; first compound 0.005 µM) | relative viability (Afatinib + Dasatinib; first compound 0.01581 µM) | relative viability (Afatinib + Dasatinib; first compound 0.05 µM) | relative viability (Afatinib + Dasatinib; first compound 0.1581 µM) | relative viability (Afatinib + Dasatinib; first compound 0.5 µM) | relative viability (Afatinib + Pemetrexed; first compound 0.005 µM) | relative viability (Afatinib + Pemetrexed; first compound 0.01581 µM) | relative viability (Afatinib + Pemetrexed; first compound 0.05 µM) | relative viability (Afatinib + Pemetrexed; first compound 0.1581 µM) | relative viability (Afatinib + Pemetrexed; first compound 0.5 µM) | relative viability (Afatinib + Palbociclib; first compound 0.005 µM) | relative viability (Afatinib + Palbociclib; first compound 0.01581 µM) | relative viability (Afatinib + Palbociclib; first compound 0.05 µM) | relative viability (Afatinib + Palbociclib; first compound 0.1581 µM) | relative viability (Afatinib + Palbociclib; first compound 0.5 µM) | relative viability (Afatinib + Vorinostat; first compound 0.005 µM) | relative viability (Afatinib + Vorinostat; first compound 0.01581 µM) | relative viability (Afatinib + Vorinostat; first compound 0.05 µM) | relative viability (Afatinib + Vorinostat; first compound 0.1581 µM) | relative viability (Afatinib + Vorinostat; first compound 0.5 µM)
PC-3 [JPC-3] | 0.46 | 0.339 | 0.286 | 0.25 | 0.33 | 0.514 | 0.384 | 0.462 | 0.414 | 0.431 | 0.484 | 0.444 | 0.441 | 0.362 | 0.397 | 0.531 | 0.339 | 0.287 | 0.326 | 0.328
PC-14 | 0.0312 | 0.0316 | 0.0366 | 0.0312 | 0.0453 | 0.155 | 0.155 | 0.164 | 0.165 | 0.149 | 0.0841 | 0.0837 | 0.079 | 0.0664 | 0.0642 | 0.112 | 0.0624 | 0.108 | 0.0886 | 0.124
RERF-LC-KJ | 0.663 | 0.662 | 0.736 | 0.61 | 0.616 | 0.466 | 0.442 | 0.484 | 0.481 | 0.453 | 1.05 | 1.02 | 0.984 | 0.85 | 0.825 | 0.713 | 0.636 | 0.544 | 0.574 | 0.519
SK-LU-1 | 0.179 | 0.203 | 0.211 | 0.175 | 0.222 | 0.967 | 0.816 | 1.03 | 0.948 | 0.969 | 0.355 | 0.416 | 0.413 | 0.396 | 0.4 | 0.727 | 0.806 | 0.767 | 0.771 | 0.738
SK-MES-1 | 0.247 | 0.203 | 0.18 | 0.139 | 0.16 | 0.386 | 0.707 | 0.472 | 0.438 | 0.434 | 0.305 | 0.289 | 0.306 | 0.257 | 0.257 | 0.542 | 0.816 | 0.509 | 0.54 | 0.506
SW 900 | 0.622 | 0.323 | 0.683 | 0.547 | 0.435 | 0.467 | 0.445 | 0.497 | 0.487 | 0.448 | 0.464 | 0.354 | 0.438 | 0.43 | 0.49 | 0.597 | 0.364 | 0.544 | 0.428 | 0.461
SW 1573 | 0.355 | 0.438 | 0.528 | 0.475 | 0.417 | 0.747 | 0.852 | 0.86 | 0.769 | 0.861 | 0.451 | 0.364 | 0.404 | 0.306 | 0.362 | 0.696 | 0.682 | 1.01 | 0.692 | 0.777
UMC-11 | 0.657 | 0.439 | 0.436 | 0.419 | 0.419 | 0.892 | 0.814 | 0.846 | 0.738 | 0.722 | 0.355 | 0.325 | 0.283 | 0.308 | 0.325 | 0.378 | 0.361 | 0.347 | 0.416 | 0.364
